Data reported in PMC9404985, “Development of Dicationic Bisguanidine-Arylfuran Derivatives as Potent Agents against Gram-Negative Bacteria” (Antibiotics, 2022).

How the values were obtained:
[1] = Cytotoxicity assay (PrestoBlue) MCF-7; format: cell-based; settings: human, MCF-7 cells (breast cancer cell line), 24 h incubation
Experimental: (§1) The cytotoxicity levels of all compounds were evaluated against human Michigan Cancer Foundation-7 (MCF-7) and Hepatoma G2 cell line (HepG2) cell lines. MCF-7 is an extensively characterized breast cancer cell line isolated in 1970 [41], while HepG2 cells were derived from a hepatoma in 1975 [42]. Both cell lines grow robustly during in vitro culture and have been widely used for cytotoxicity testing. Cells of hepatic origin, such as HepG2, are of particular relevance for toxicity studies as many drugs accumulate in the liver during metabolic conversion. Cells were grown in Dulbecco’s Modified Eagle Medium supplemented with 10% fetal calf serum and kept in exponential growth, as previously reported. Before the assay, cells were reseeded into 96-well microtiter plates at a density allowing continued exponential growth and let to settle for 24 h. The compounds were added from a stock solution in DMSO, for a final concentration of 0.3% v/v of the solvent in the culture medium. After 24 h of incubation in presence of the compound, cell viability was assayed using PrestoBlue Cell Viability Reagent (resazurin-based solution, ThermoFisher, Waltham, MA, USA) according to the manufacturer’s instructions. […] Each assay contained a DMSO control at the equivalent starting concentration, positive control (uninhibited cell growth) and negative control (cell medium only). Survival was expressed as percentage of the solvent-only control. […] The Selectivity Index (SI) for each compound and bacterial strain was calculated as the ratio between the mean of the EC50 values for the two human cell lines and the EC50 for the bacterial strain in question ((EC50 MCF-7 + EC50 HepG2)/2)/EC50 bacterial strain).

[2] = Cytotoxicity assay (PrestoBlue) HepG2; format: cell-based; settings: human, HepG2 cells (hepatoma cell line), 24 h incubation
Experimental: as §1

[3] = test system: K. pneumoniae (CCUG #225T); assay: Antibacterial activity against isolates (Omnilog, Biolog redox dye); format: cell-based, Klebsiella pneumoniae; settings: for EC50 / EC90: Klebsiella pneumoniae, ca-MH broth, 24 h, 37 °C
Experimental: (§2) The antibacterial activities of eight compounds (1, 3, 4, 6, 8, 10, 16, and 17) were tested against 10 different isolates of Gram-negative bacteria from human and other sources, two E. coli (CCUG #67180 and CCUG #17620/ATCC #25922, control strain), two K. pneumoniae (CCUG #58547 and CCUG #225T), two P. aeruginosa (CCUG #17619 and CCUG #59347), two A. baumannii (CCUG #57035 and CCUG #57250), E. cloacae (CCUG #6323T), and E. hormaechei (CCUG #58962) in a 96-well plate format. The compounds to test were 3-fold diluted in six steps in cation-adjusted Mueller-Hinton (ca-MH) broth to final concentrations spanning from 30 to 0.12 µM, i.e., a 1667–416,667 times dilution from the 50 mM stocks. Bacterial mass from the ten isolates grown overnight on horse blood or Mueller–Hinton agar plates was suspended in ca-MH and adjusted to a final inoculum cell density of ~5 × 10^5 CFU/mL. For all assays, Biolog redox dye A diluted 100× from the stock solution was used for measurements of all ten isolates (up to a total volume of 120 µL per well). All plates included one well per isolate with only inoculum and dye but no test compound (i.e., positive control) and one well per isolate with inoculum, dye and DMSO diluted 1667×, corresponding to the DMSO concentration in the wells with the highest concentration of test compound. All measurements were performed using the Omnilog microplate reader (Biolog, Hayward, CA, USA) where the 96-well plates were read at 15 min intervals for a total of 24 h at 37 °C.

[4] = test system: P. aeruginosa (CCUG #59347); assay: as above; format: cell-based, Pseudomonas aeruginosa; settings: for EC50 / EC90: Pseudomonas aeruginosa, CCUG59347, ca-MH broth, 24 h, 37 °C; for Selectivity index P. aeruginosa (CCUG #59347): SI = ((EC50 MCF-7 + EC50 HepG2)/2)/EC50 bacterial strain
Experimental: as §2, with “The compounds to test were 3-fold diluted in six steps in cation-adjusted Mueller-Hinton (ca-MH) broth to final concentrations spanning from 30 to 0.12 µM, i.e., a 1667–416,667 times dilution from the 50 mM stocks.” left out

[5] = test system: A. baumannii (CCUG #57250); assay: as above; format: cell-based, Acinetobacter baumannii; settings: for EC90 / EC50: Acinetobacter baumannii, ca-MH broth, 24 h, 37 °C; for EC90: CCUG57250, 24 h; for EC50: CCUG57250; for Selectivity index A. baumannii (CCUG #57250): SI = ((EC50 MCF-7 + EC50 HepG2)/2)/EC50 bacterial strain
Experimental: as §2

[6] = test system: E. cloacae (CCUG #6323T); assay: as above; format: cell-based, Enterobacter cloacae; settings: for EC50 / EC90: Enterobacter cloacae, ca-MH broth, 24 h, 37 °C; for Selectivity index E. cloacae (CCUG #6323T): SI = ((EC50 MCF-7 + EC50 HepG2)/2)/EC50 bacterial strain
Experimental: as §2

[7] = test system: B. subtilis (NBRC/ATCC #111470); assay: Antibacterial resazurin assay, laboratory strain; settings: Bacillus subtilis, ATCC111470, 18 h; for EC50: read-out: Bsu EC50; for EC90: read-out: Bsu EC90
[8] = test system: E. coli MG1655 (CGSC #6300); assay: Antibacterial resazurin assay, laboratory strain; settings: for EC50 / EC90: Escherichia coli, MG1655, 18 h; for EC50: read-out: Eco EC50; for EC90: read-out: Eco EC90; for Selectivity index E. coli: mean of MCF-7 and HepG2 EC50 over bacterial EC50, laboratory strain
[9] = test system: P. carotovorum (NBRC/ATCC #3380); assay: Antibacterial resazurin assay, laboratory strain; settings: for EC50 / EC90: Pectobacterium carotovorum, ATCC3380, 18 h; for EC50: read-out: Pcar EC50, laboratory strain, 18 h, 37 °C, AlamarBlue; for EC90: read-out: Pcar EC90; for Selectivity index P. carotovorum: mean of MCF-7 and HepG2 EC50 over bacterial EC50, laboratory strain
[10] = test system: P. caledonica (NBRC/ATCC #102488); assay: Antibacterial resazurin assay, laboratory strain; settings: for EC50 / EC90: Paraburkholderia caledonica, ATCC102488, 18 h; for EC50: read-out: Pcal EC50; for EC90: read-out: Pcal EC90; for Selectivity index P. caledonica: mean of MCF-7 and HepG2 EC50 over bacterial EC50, laboratory strain

| SMILES | EC50 at 24 h [1] [µM] | EC50 at 24 h [2] [µM] | EC50 [3] [µM] | EC90 [3] [µM] | EC50 [4] [µM] | EC90 [4] [µM] | Selectivity index P. aeruginosa (CCUG #59347) [4] | EC90 [5] [µM] | EC50 [5] [µM] | Selectivity index A. baumannii (CCUG #57250) [5] | EC50 [6] [µM] | EC90 [6] [µM] | Selectivity index E. cloacae (CCUG #6323T) [6] | EC50 [7] [µM] | EC90 [7] [µM] | EC50 [8] [µM] | EC90 [8] [µM] | Selectivity index E. coli [8] | EC50 [9] [µM] | EC90 [9] [µM] | further results |
| --- | --- | --- | --- | --- | --- | --- | --- | --- | --- | --- | --- | --- | --- | --- | --- | --- | --- | --- | --- | --- | --- |
| N=C(N)Nc1ccc(-c2ccc(C(=O)N3CCc4cc(NC(=N)N)ccc43)o2)c(Cl)c1 [Compound 16, (5-(2-chloro-4-guanidinophenyl)furan-2-yl)(5-guanidinoindolin-1-yl)methanone] | 177 | 241 | 9.8 | 12.2 | 18.1 | 24 | 11.5 | 12.5 | 12.5 | 16.7 | 3.5 | 7.9 | 60.1 | > 300 | > 300 | 13.1 | 19 | 16.0 | 70.9 | 80.7 | Selectivity index K. pneumoniae (CCUG #225T) ([3]; SI = ((EC50 MCF-7 + EC50 HepG2)/2)/EC50 bacterial strain): 21.4; Selectivity index P. carotovorum [9]: 2.9; EC50 [10]: 51.4 µM; EC90 [10]: 176 µM; Selectivity index P. caledonica [10]: 4.1 |
| N=C(N)Nc1ccc(-c2ccc(C(=O)N3CCc4cc(NC(=N)N)ccc43)o2)cc1 [Compound 17, (5-(4-guanidinophenyl)furan-2-yl)(5-guanidinoindolin-1-yl)methanone] | 149 | 239 | > 200 | > 200 | 17 | 23.9 | 11.4 | 90.3 | 61.8 | 3.1 | 5.6 | 8.6 | 34.8 | > 300 | > 300 | 1.7 | 4.3 | 114.3 | 130 | 142 | Selectivity index P. carotovorum [9]: 1.5; EC50 [10]: 72.5 µM; EC90 [10]: > 300 µM; Selectivity index P. caledonica [10]: 2.7 |
